The test system of this assay is SIRT6. The experiment in a line: SIRT6 expression in normal human epidermal keratinocytes by immunohistochemistry. It is filed as cell-based. To be noted: 1% and 3% of a 50 ppm peptide solution, FIG. 2. As for the experimental part:
SIRT6 is a member of the conserved family of sirtuin proteins which are associated with metabolism and longevity. SIRT6 is a histone 3, lysine 9 (H3K9) deacetylase and is primarily involved in DNA repair and telomere stability. The peptide of (SEQ ID No. 5) Gly-Ala-Gly-Val-Ser-Ala-Glu-NH2 was tested for Sirt6 stimulating activity as follows.
Normal Human Epidermal Keratinocytes p3
• 1. Cells were plated into 4 well chamber slides @ 10,000 cells/chamber and incubated at 37° C., 5% CO2 & 95% humidity for 24 hours. • 2. The peptide of SEQ ID No. 5 was prepared as follows: • 2.1. Dissolved 5 mg peptide in 5 ml medium to make a 1000 ppm stock solution. • 2.2. Diluted the stock solution to 50 ppm by combining 400 μl 1000 ppm stock solution with 7.6 ml medium • 2.3. Prepared a 3% of the 50 ppm solution by combining 1.5 ml 50 ppm stock with 48.5 ml medium • 2.4. Prepared a 1% of the 50 ppm solution by combining 0.5 ml 50 ppm stock with […] medium • 3. Placed treatments (500 μl per chamber) on cells for 48 h, refreshing treatments after 24 h • 4. Aspirated media and replaced with the appropriate treatments. Incubated for 1 & 6 hours. • 5. Performed immunohistochemistry on the cells
• 6. Prepared Wash Buffer (0.2% Triton X-100):
6.1. Add 1 mL of Triton X-100 to 499 ml of 1×PBS • 7. Prepared Block Solution (1%/10 mg/ml BSA)
7.1. Added 5 g of BSA into a final volume of 500 ml of 1×PBS • 8. […]

Ends that are not written are not given here.

For “Gly-Ala-Gly-Val-Ser-Ala-Glu-NH2 (GAGVSAE-NH2) [SEQ ID No. 5]”, the SIRT6 expression result is “dose dependent increase in SIRT6 expression”.

For the origin of these results see US20170027854A1, “Methods And Compositions For Improving The Appearance Of Skin” (ELC Management LLC, priority 2015, published 2017).
